Measurements from patent publication US7462713B2, “Tricyclic compounds protein kinase inhibitors for enhancing the efficacy of anti-neoplastic agents and radiation therapy” (Agouron Pharmaceuticals, Inc., priority 2003, dated 2008).
pKi: −log10 of the molar value. Counter-ions that a name gives are not always drawn.

Target: T1, kinase domain of human CHK-1 (KH289) (Homo sapiens, UniProt O14757)
T1 construct: kinase domain of human CHK-1 (KH289), amino acid residues 1-289; made in house; host or cells: baculovirus (Bac-to-Bac); Hi-S insect cells for protein production, Sf9/Sf21 for virus amplification
T1 sequence (O14757 1-289): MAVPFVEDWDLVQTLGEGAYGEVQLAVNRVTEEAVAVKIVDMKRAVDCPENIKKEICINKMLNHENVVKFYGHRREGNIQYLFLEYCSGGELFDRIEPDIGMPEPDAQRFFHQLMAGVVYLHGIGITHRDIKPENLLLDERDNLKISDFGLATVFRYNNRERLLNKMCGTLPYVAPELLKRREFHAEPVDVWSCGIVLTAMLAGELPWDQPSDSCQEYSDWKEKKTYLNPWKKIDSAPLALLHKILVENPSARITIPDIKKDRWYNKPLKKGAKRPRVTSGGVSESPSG
Assay: CHK-1 coupled spectrophotometric enzyme assay (Syntide-2, PK/LDH, NADH oxidation)
Format: biochemical
Settings: 10 nM KH289, 0.15 mM ATP, 0.125 mM Syntide-2, pH 7.5
From the text: As previously detailed in European Patent Application No. 1 096 014 A2 (filed Oct. 31, 2000), the C-terminally His-tagged kinase domain of human CHK-1 (KH289), amino acid residues 1-289, can be expressed using the baculovirus/insect cell system. […] The Bac-to-Bac system (Life Technologies) can be used to generate recombinant baculovirus for the expression of KH289 as per instructions. Recombinant viruses can be confirmed by PCR for the presence of CHK-1 cDNA insertion. […] Sf9 insect cells (Invitrogen, Carlsbad, Calif., USA) can be used for initial amplification of recombinant virus stock. High titer stocks of recombinant viruses can be generated by 2 to 3 rounds of amplification using Sf21 insect cells. Hi-S insect cells (Invitrogen, Carlsbad, Calif., USA) can be used for protein production. Both Sf9 and Hi-S cell lines can be adapted to grow in insect medium containing 1% Fetal Bovine Serum (Life Technologies, Grand Island, N.Y., USA). The viral stock was stored at […] and used for large-scale protein production within 2 months to avoid viral instability. For protein production, infected Hi-S cells can be harvested by centrifugation and stored at −80° C. From these cells, 6X-His tagged KH289 (identified by SDS-PAGE) can be obtained after purification and can be flash-frozen in liquid N2 and stored at −80° C.
As previously detailed in European Patent Application No. 1 096 014 A2 (filed Oct. 31, 2000), the enzymatic activity of a kinase can be measured by its ability to catalyze the transfer of a phosphate residue from a nucleoside triphosphate to an amino acid side chain in a selected protein target. The conversion of ATP to ADP generally accompanies the catalytic reaction. Herein, a synthetic substrate peptide, Syntide-2, having amino acid sequence […] can be utilized. The production of ADP from ATP that accompanies phosphoryl transfer to the substrate can be coupled to oxidation of NADH using phosphoenolpyruvate (PEP) through the actions of pyruvate kinase (PK) and lactic dehydrogenase (LDH). The oxidation of NADH can be monitored by following the decrease of absorbance at 340 nm (e340=6.22 cm-1 mM-1) using a HP8452 spectrophotometer. Typical reaction solutions contained: 4 mM PEP, 0.15 mM NADH, 28 units of LDH/mL, 16 units of PK/mL, 3 mM DTT, 0.125 mM Syntide-2, 0.15 mM ATP and 25 mM MgCl2 in 50 mM TRIS pH 7.5; 400 mM NaCl. Assays can be initiated with 10 nM of kinase domain of CHK-1, KH289. Ki values can be determined by measuring initial enzyme activity in the presence of varying concentrations of inhibitors. The data can be analyzed using Enzyme Kinetic and Kaleidagraph software.

Question: Cn1cc(-c2[nH]c3cc(NC(=O)[C@H](N)C4Cc5ccccc5C4)cc4c3c2C=NNC4=O)cn1 [Example 255, (2R)-2-Amino-2-indan-2-yl-N-[2-(1-methyl-1H-pyrazol-4-yl)-6-oxo-5,6-dihydro-1H-[1,2]diazepino[4,5,6-cd]indol-8-yl]-acetamide (hydrochloric salt)] was tested. Which pKi did it give?
Answer: 9.85

Question: With Cn1cc(-c2[nH]c3cc(NC(=O)[C@H](N)CCc4ccccc4)cc4c3c2C=NNC4=O)cn1 [Example 256, (2R)-2-Amino-N-[2-(1-methyl-1H-pyrazol-4-yl)-6-oxo-5,6-dihydro-1H-[1,2]diazepino[4,5,6-cd]indol-8-yl]-4-phenyl-butylamide (hydrochloric salt)] as the molecule, how does the pKi read?
Answer: 9.11

Question: How did the pKi turn out when N[C@@H](C(=O)Nc1cc2c3c(c[nH]c3c1)C=NNC2=O)C1Cc2ccccc2C1 [Example 257, (2R)-2-Amino-2-indan-2-yl-N-(6-oxo-5,6-dihydro-1H-[1,2]diazepino[4,5,6-cd]indol-8-yl)-acetamide (hydrochloric salt)] was run?
Answer: 9.57

Question: With N[C@H](CCc1ccccc1)C(=O)Nc1cc2c3c(c(Br)[nH]c3c1)C=NNC2=O [Example 259, (2R)-2-Amino-N-(2-bromo-6-oxo-5,6-dihydro-1H-[1,2]diazepino[4,5,6-cd]indol-8-yl)-4-phenyl-butylamide (hydrochloric salt)] as the molecule, how does the pKi read?
Answer: 9.00

Question: Cc1ccc(-c2[nH]c3cc(NC(=O)[C@H](N)C4Cc5ccccc5C4)cc4c3c2C=NNC4=O)cn1 [Example 260, (2R)-2-Amino-2-indan-2-yl-N-[2-(6-methyl-pyridin-3-yl)-6-oxo-5,6-dihydro-1H-[1,2]diazepino[4,5,6-cd]indol-8-yl]-acetamide (hydrochloric salt)] was tested. Which pKi did it give?
Answer: 9.38

Question: With N[C@H](CCc1ccccc1)C(=O)Nc1cc2c3c(c(Cl)[nH]c3c1)C=NNC2=O [Example 261, (2R)-2-Amino-N-(2-chloro-6-oxo-5,6-dihydro-1H-[1,2]diazepino[4,5,6-cd]indol-8-yl)-4-phenyl-butylamide (hydrochloric salt)] as the molecule, how does the pKi read?
Answer: 8.70

Question: Cn1cc(-c2[nH]c3cc(NC(=O)[C@]4(N)C[C@H]4c4ccccc4)cc4c3c2C=NNC4=O)cn1 [Example 262, (1S,2S)-1-Amino-2-phenyl-cyclopropanecarboxylic acid [2-(1-methyl-1H-Pyrazol-4-yl)-6-oxo-5,6-dihydro-1H-[1,2]diazepino[4,5,6-cd]indol-8-yl]-amide (hydrochloric salt)] was tested. Which pKi did it give?
Answer: 9.52

Question: With Cn1cc(-c2[nH]c3cc(NC(=O)[C@H](N)COc4ccc(F)cc4)cc4c3c2C=NNC4=O)cn1 [Example 263, (2R)-2-Amino-3-(4-fluoro-phenoxy)-N-[2-(1-methyl-1H-pyrazol-4-yl)-6-oxo-5,6-dihydro-1H-[1,2]diazepino[4,5,6-cd]indol-8-yl]-propionamide (hydrochloric salt)] as the molecule, how does the pKi read?
Answer: 9.37

Question: How did the pKi turn out when Cn1cc(-c2[nH]c3cc(NC(=O)[C@H](N)COc4ccccc4)cc4c3c2C=NNC4=O)cn1 [Example 264, (2R)-2-Amino-N-[2-(1-methyl-1H-pyrazol-4-yl)-6-oxo-5,6-dihydro-1H-[1,2]diazepino[4,5,6-cd]indol-8-yl]-3-phenoxy-propionamide (hydrochloric salt)] was run?
Answer: 9.32

Question: How did the pKi turn out when N[C@@H](C(=O)Nc1cc2c3c(c(Cl)[nH]c3c1)C=NNC2=O)C1Cc2ccccc2C1 [Example 265, (2R)-2-Amino-N-(2-chloro-6-oxo-5,6-dihydro-1H-[1,2]diazepino[4,5,6-cd]indol-8-yl)-2-indan-2-yl-acetamide (hydrochloric salt)] was run?
Answer: 9.14

Question: Cn1cnc(-c2[nH]c3cc(NC(=O)[C@H](N)CCc4ccccc4)cc4c3c2C=NNC4=O)c1 [Example 266, (2R)-2-Amino-N-[2-(1-methyl-1H-imidazol-4-yl)-6-oxo-5,6-dihydro-1H-[1,2]diazepino[4,5,6-cd]indol-8-yl]-4-phenyl-butylamide (hydrochloric salt)] was tested. Which pKi did it give?
Answer: 9.54

Question: How did the pKi turn out when Cc1ccc(-c2[nH]c3cc(NC(=O)[C@H](N)CCc4ccccc4)cc4c3c2C=NNC4=O)cn1 [Example 267, (2R)-2-Amino-N-[2-(6-methyl-pyridin-3-yl)-6-oxo-5,6-dihydro-1H-[1,2]diazepino[4,5,6-cd]indol-8-yl]-4-phenyl-butylamide (hydrochloric salt)] was run?
Answer: 9.11

Question: How did the pKi turn out when Cc1cc(-c2[nH]c3cc(NC(=O)[C@H](N)CCc4ccccc4)cc4c3c2C=NNC4=O)on1 [Example 268, (2R)-2-Amino-N-[2-(3-methyl-isoxazol-5-yl)-6-oxo-5,6-dihydro-1H-[1,2]diazepino[4,5,6-cd]indol-8-yl]-4-phenyl-butylamide (hydrochloric salt)] was run?
Answer: 11.00

Question: How did the pKi turn out when Cc1cc(-c2[nH]c3cc(NC(=O)[C@H](N)C4Cc5ccccc5C4)cc4c3c2C=NNC4=O)on1 [Example 269, (2R)-2-Amino-2-indan-2-yl-N-[2-(3-methyl-isoxazol-5-yl)-6-oxo-5,6-dihydro-1H-[1,2]diazepino[4,5,6-cd]indol-8-yl]-acetamide] was run?
Answer: 9.82

Question: With Cn1cc(-c2[nH]c3cc(NC(=O)CNCc4ccccc4)cc4c3c2C=NNC4=O)cn1 [Example 270, 2-Benzylamino-N-[2-(1-methyl-1H-pyrazol-4-yl)-6-oxo-5,6-dihydro-1H-[1,2]diazepino[4,5,6-cd]indol-8-yl]-acetamide (hydrochloric salt)] as the molecule, how does the pKi read?
Answer: 9.10

Question: How did the pKi turn out when Cn1cnc(-c2[nH]c3cc(NC(=O)[C@H](N)C4CCCCC4)cc4c3c2C=NNC4=O)c1 [Example 271, (2R)-2-Amino-2-cyclohexyl-N-[2-(1-methyl-1H-imidazol-4-yl)-6-oxo-5,6-dihydro-1H-[1,2]diazepino[4,5,6-cd]indol-8-yl]-acetamide (hydrochloric salt)] was run?
Answer: 8.92

Question: With Cn1cc(-c2[nH]c3cc(NC(=O)[C@H](N)c4ccc(F)cc4)cc4c3c2C=NNC4=O)cn1 [Example 273, (2R)-2-Amino-2-(4-fluoro-phenyl)-N-[2-(1-methyl-1H-pyrazol-4-yl)-6-oxo-5,6-dihydro-1H-[1,2]diazepino[4,5,6-cd]indol-8-yl]-acetamide (hydrochloric salt)] as the molecule, how does the pKi read?
Answer: 9.34

Question: With CN(CC(=O)Nc1cc2c3c(c(-c4cnn(C)c4)[nH]c3c1)C=NNC2=O)Cc1ccccc1 [Example 274, 2-(Benzyl-methyl-amino)-N-[2-(1-methyl-1H-pyrazol-4-yl)-6-oxo-5,6-dihydro-1H-[1,2]diazepino[4,5,6-cd]indol-8-yl]-acetamide] as the molecule, how does the pKi read?
Answer: 8.70

Question: With O=C1NN=Cc2c[nH]c3cc(OCC4CC4c4ccccc4)cc1c23 (centres unmarked) [Example 275, 8-[(2-phenylcyclopropyl)methoxy]-1,5-dihydro-6H-[1,2]diazepino[4,5,6-cd]indol-6-one] as the molecule, how does the pKi read?
Answer: 8.15

Question: With N[C@H](CCc1ccccc1)C(=O)Nc1cc2c3c(c[nH]c3c1)C=NNC2=O [Example 276, (2R)-2-Amino-N-(6-oxo-5,6-dihydro-1H-[1,2]diazepino[4,5,6-cd]indol-8-yl)-4-Phenyl-butylamide (hydrochloric salt)] as the molecule, how does the pKi read?
Answer: 8.35

Question: With N[C@H](CCc1ccccc1)C(=O)Nc1cc2c3c(c(-c4ccccn4)[nH]c3c1)C=NNC2=O [Example 277, (2R)-2-amino-N-(6-oxo-2-pyridin-2-yl-5,6-dihydro-1H-[1,2]diazepino[4,5,6-cd]indol-8-yl)-4-phenylbutanamide] as the molecule, how does the pKi read?
Answer: 9.26

Question: N[C@@H](C(=O)Nc1cc2c3c(c(-c4ccccn4)[nH]c3c1)C=NNC2=O)C1Cc2ccccc2C1 [Example 278, (2R)-2-amino-2-(2,3-dihydro-1H-inden-2-yl)-N-(6-oxo-2-pyridin-2-yl-5,6-dihydro-1H-[1,2]diazepino[4,5,6-cd]indol-8-yl)acetamide (hydrochloric salt)] was tested. Which pKi did it give?
Answer: 9.33

Question: With “(2R)-2-Amino-2-indan-2-yl-N-[2-(1-methyl-1H-imidazol-4-yl)-6-oxo-5,6-dihydro-1H-[1,2]diazepino[4,5,6-cd]indol-8-yl]-acetamide (hydrochloric salt) [Example 272]” as the molecule, how does the pKi read?
Answer: 9.70
